Laboratory results: patent EP4653017A1, “ANTIBODY-DRUG CONJUGATE AND USE THEREOF” (Tyligand Bioscience (Shanghai) Limited, priority 2023, dated 2024)
Counter-ions that a name gives are not always drawn. Like-named read-outs stand apart in the source and are kept apart here.

Key:
[1] = system: THP-1 cells; assay: Activation of IFN-β secretion by THP-1 cells (IFN-beta ELISA); type: cell-based, human; conditions: for STING agonist activity (in words): EC50 stronger than 2',3'-cGAMP, comparable to ADU-S100; for EC50: read-out: THP-1 activity
[2] = system: CT26 cells; assay: Inhibition of CT26 cell proliferation (CellTiter-Glo); type: cell-based, mouse; conditions: for IC50: read-out: CT-26 activity; for inhibitory ability on growth of CT26 tumor cells in vitro (in words): superior to ADU-S100
Description: CT26 cells are a mouse colorectal cancer cell line. In this experiment, CellTiter-Glo Luminescence Cell Viability Assay kit from Promega was used to assess the inhibitory activity of the compounds on CT26 cell proliferation.
When CT26 cells (ATCC #CRL-2638) were revived, the cryovial was rapid shaken in a 37°C water bath to thaw with 1 min. The thawed cell suspension was mixed well with DMEM medium (GE Company, Cat. No. #SH30243.01) containing 10% FBS (GIBCO, Cat. No. #10099-141), centrifuged at 1000 rpm for 5 min, and the supernatant was discarded. The cell pellet was resuspended in 5 mL of complete medium (DMEM medium containing 10% FBS), placed in a cell culture flask with a bottom area of 25 cm^2, and cultured in a cell incubator at 37°C, 5% CO2, and 95% humidity. Passage was performed when the confluence rate of cells reached 70%~80%. Referring to the cell passage method at plating, all cells in the flask were transferred to a 15 mL centrifuge tube, centrifuged at 1000 rpm for 5 minutes, and the supernatant was discarded. The cell pellet was resuspended in 5 mL of new complete medium, 1 mL was placed in a cell culture flask with a bottom area of 25 cm^2, and 4 mL of fresh complete medium was added to continue the culture. Plating was performed when the cell confluence rate of cells reached 70% to 80% again. Referring to the cell passage method at plating, 1/5 of the cell suspension was maintained and the remaining 4/5 of the cell suspension was placed in a 15 mL centrifuge tube. The cells were centrifuged, the old medium was discarded, the cells was washed once with DMEM medium (without serum), and centrifuged to remove the supernatant. Cells were resuspended with DMEM medium (without serum). […]. A cell suspension at a density of 1.1 x 10^4 viable cells/mL was prepared using DMEM medium (without serum) and 90 µL of the cell suspension was added to 96-well clear flat-bottom black-walled cell culture plate wells (Corning, Cat. No. #3603) to yield a cell density of 1000 viable cells/well in the plate. A control group without cells, without compounds, and with complete medium only (i.e., culture medium control) was set up, and a control group without compounds and with cells (i.e., cell control) was set up. The plates were incubated overnight in a cell incubator.
A DMSO stock solution of 10 mM compound was first serially diluted at a 3.16-fold dilution ratio with DMSO (Sigma, Cat. No. #D2650) to a ninth concentration and a tenth concentration of DMSO control without compound was set. DMSO solutions containing different concentrations of the compound were then diluted a 10-fold dilution ratio with PBS (Solarbio company, Cat. No. #P1020) to achieve a DMSO content of 10% in each concentration of the compound solution. Finally, 10 µL of the above solution was added to the corresponding cell culture plate to achieve a starting concentration of 100 µM compound, a 3.16-fold dilution ratio of adjacent concentrations, and a DMSO content of 1% in the cell culture plate. The plates were maintained in a cell incubator for an additional 120 hours.
After 120 hours, the CellTiter-Glo reagent (Promega, Cat. No. #G7572) was thawed and the plate was equilibrated at room temperature for 30 min. Then, 100 µL CellTiter-Glo was added to each well of the plate and shaken on an orbital shaker for 5 min to fully lyse the cells. The plate was placed at room temperature for 20 min to stabilize the cold light signal, and the cold light value of each well was scanned with a multifunctional microplate reader (Molecular Devices, Spectramax M3) at full wavelength.
The compound of the present invention and ADU-S100 (MCE, Cat. No. #HY12885A) were used as controls: Clofarabine (Wuhu Huaren Technology, Cat. No. #HR-00701002), Cladribine (CSNpharm, Cat. No. #CSN10004), Gemcitabine Hydrochloride (Shaoyuan, Cat. No. #SY014538), Gemcitabine Prodrug LY2334737 (home-made). […]

[3] = system: A20; assay: Inhibition of tumor cell line proliferation (Table 3), A20; type: cell-based; conditions: A20, Mouse B lymphoma cells
[4] = system: A375; assay: Inhibition of tumor cell line proliferation (Table 3), A375; type: cell-based; conditions: A-375; A375, Human melanoma cells
[5] = system: B16F10; assay: Inhibition of tumor cell line proliferation (Table 3), B16F10; type: cell-based; conditions: B16-F10; B16F10, Mouse melanoma cells
[6] = system: Daudi; assay: Inhibition of tumor cell line proliferation (Table 3), Daudi; type: cell-based; conditions: Human Burkitt's lymphoma cells
[7] = system: FaDu; assay: Inhibition of tumor cell line proliferation (Table 3), FaDu; type: cell-based; conditions: Human pharyngeal squamous carcinoma cell
[8] = system: H22; assay: Inhibition of tumor cell line proliferation (Table 3), H22; type: cell-based; conditions: H22, Mouse hepatoma cells
[9] = system: MC38; assay: Inhibition of tumor cell line proliferation (Table 3), MC38; type: cell-based; conditions: MC-38; MC38, Mouse colon cancer cells
[10] = system: SK-MEL5; assay: Inhibition of tumor cell line proliferation (Table 3), SK-MEL5; type: cell-based; conditions: SK-MEL-5; SK-MEL5, Human melanoma cells
[11] = system: 4T1; assay: Inhibition of tumor cell line proliferation (Table 3), 4T1; type: cell-based; conditions: 4T1, Mouse breast cancer cells
[12] = system: CT26 cells; assay: CT26 syngeneic mouse bilateral transplanted tumor model; type: in vivo, BALB/c mice; conditions: for growth inhibition rates of left tumors: left (untreated) tumor, 50 µg compound/mouse (2.5 mg/kg) intratumorally into right flank on days 0 and 4, day 13 after treatment; for tumor growth inhibition rate: right (treated) tumor, 50 µg compound/mouse (2.5 mg/kg) intratumorally on days 0 and 4, 13 days post treatment
Description: When tumors grew to an average volume of 100 mm^3, treatments were randomized and started based on tumor size and mouse body weight. The first day of dosing was Day 0. Two doses were administered, 50 µg compound/mouse (i.e., 2.5 mg/kg) was injected intratumorally into the right flank on days 0 and 4, and the same volume of PBS (Hyclone Company, Cat. No. #SH30258.01) was used as a control. The left tumor was left untreated. Control mice were sacrificed after 13 days of dosing and treated mice were sacrificed 21 days later. During the experiment, the tumor volume and body weight were measured three times a week on the left and right sides, and the tumor volume was calculated as V = D × d × d/2 (wherein D represents the long diameter of the tumor and d represents the short diameter of the tumor).

[13] = Mus musculus, CT26, 120 hours incubation, CellTiter-Glo
[14] = IFN-β secretion, 24 hours incubation, ELISA

Row | Molecule | STING agonist activity (in words) [1] | EC50 ([1]; Homo sapiens, THP-1, 24 h) [µM] | IC50 ([2]; Mus musculus, CT26, 120 h) [nM] | growth inhibition rates of left tumors [12] [%] | inhibitory ability on growth of CT26 tumor cells in vitro (in words) [2] | also measured
1 | Nc1nc2c(ncn2C2OC3COP(=O)(S)OC4C(COP(=O)(S)OC2C3O)OC(n2cnc3c(N)ncnc32)C4F)c(=O)[nH]1 (stereo not shown) [CDN-11] | significant STING agonist activity | 1 to 10 |  |  |  | 
2 | Nc1nc(Cl)nc2c1ncn2[C@@H]1O[C@H](CO)[C@@H](O)[C@@H]1F [Clofarabine, clofarabine, reference compound] |  |  |  |  |  | IC50 [2, 13]: < 1000 nM
3 | Nc1ncnc2c1ncn2[C@@H]1O[C@@H]2CO[P@@](=O)(S)O[C@@H]3[C@H](O)[C@@H](CO[P@@](=O)(S)O[C@H]2[C@H]1O)O[C@H]3n1cnc2c(N)ncnc21 [ADU-S100, reference compound] |  | 1 to 10 | > 10000 | 64.2 |  | IC50 [3]: 5.3 µM; IC50 [4]: > 10 µM; IC50 [5]: > 10 µM; IC50 [6]: > 10 µM; IC50 [7]: > 10 µM; IC50 [8]: > 10 µM; IC50 [9]: > 10 µM; IC50 [10]: > 10 µM; IC50 [11]: > 10 µM; tumor growth inhibition rate [12]: 99.1%
4 | (3',3')-cyclo-(Rp,Rp)-[3'-O-thiophosphodiester-guanosine]-[3'-O-thiophosphodiester-2-chloro-2'-deoxy-adenosine]diammonium salt [CDN-6] | significant STING agonist activity |  |  | 67.4 | particularly significant inhibitory ability | EC50 [1, 14]: 1 to 10 µM; IC50 ([2]; 120 hours incubation, CellTiter-Glo): 1000 to 10000 nM; tumor growth inhibition rate [12]: 99.5%
5 | Nc1nc2c(ncn2[C@@H]2O[C@@H]3CO[P@@](=O)(S)O[C@H]4C[C@H](n5cnc6c(N)nc(Cl)nc65)O[C@@H]4CO[P@@](=O)(S)O[C@@H]2[C@@H]3O)c(=O)[nH]1 [CDN-4, (2',3')-cyclo-(Rp,Rp)-[2'-O-thiophosphodiester-guanosine]-[3'-O-thiophosphodiester-2-chloro-2'-deoxy-adenosine]diammonium salt] | significant STING agonist activity | 1 to 10 | 1000 to 10000 | 75.3 | particularly significant inhibitory ability | 
6 | Nc1nc2c(ncn2[C@@H]2O[C@@H]3CO[P@](=O)(S)O[C@H]4[C@H](F)[C@H](n5cnc6c(N)nc(Cl)nc65)O[C@@H]4CO[P@@](=O)(S)O[C@@H]2[C@@H]3O)c(=O)[nH]1 [CDN-7, (2',3')-cyclo-(Rp,Sp)-[2'-O-thiophosphodiester-guanosine]-[3'-O-thiophosphodiester-2-chloro-2'-deoxy-2'-fluoro-beta-adenosine]diammonium salt] |  | 10.1 to 100 |  |  |  | 
7 | (2',3')-cyclo-(Rp,Rp)-[2'-O-dithiophosphodiester-guanosine]-[3'-O-dithiophosphate diester -2-amino-3-methoxy-adenosine]diammonium salt [CDN-1] |  |  |  |  | particularly significant inhibitory ability | EC50 [1, 14]: 10.1 to 100 µM
8 | Nc1nc2c(ncn2C2OC3COP(=O)(S)OC4CC(n5cnc6c(N)ncnc65)OC4COP(=O)(S)OC3C2O)c(=O)[nH]1 (stereo not shown) [CDN-12] | significant STING agonist activity | 1 to 10 |  |  |  | 
9 | N.N.Nc1nc2c(ncn2C2OC3COP(=O)(S)OC4C(COP(=O)(S)OC2C3O)OC(n2cnc3c(N)nc(F)nc32)C4O)c(=O)[nH]1 (stereo not shown) [CDN-2, (2',3')-cyclo-(Rp,Rp)-[2'-O-thiophosphodiester-guanosine]-[3'-O-thiophosphodiester-2-fluoro-adenosine]diammonium salt] | significant STING agonist activity |  |  |  | particularly significant inhibitory ability | EC50 [1, 14]: 1 to 10 µM
10 | Nc1ccn([C@@H]2O[C@H](CO)[C@@H](O)C2(F)F)c(=O)n1 [Gemcitabine, Gemcitabine Hydrochloride, reference compound] |  |  |  |  |  | IC50 [2, 13]: < 1000 nM
11 | Nc1nc(Cl)nc2c1ncn2[C@H]1C[C@H](O)[C@@H](CO)O1 [Cladribine, cladribine, reference compound] |  |  |  |  |  | IC50 [2, 13]: < 1000 nM
12 | CNc1nc(N)c2ncn([C@@H]3O[C@@H]4CO[P@@](=O)(S)O[C@@H]5[C@H](O)[C@@H](CO[P@@](=O)(S)O[C@H]4[C@@H]3F)O[C@H]5n3cnc4c(=O)[nH]c(N)nc43)c2n1 [CDN-8, (2',3')-cyclo-(Rp,Rp) - [2'-O-thiophosphodiester-guanosine]-[3'-O-thiophosphodiester-2-methylamino-2'-deoxy-2'-fluoro-beta-adenosine] diammonium salt] | significant STING agonist activity | 1 to 10 | 1000 to 10000 |  | particularly significant inhibitory ability | 
13 | Nc1nc2c(ncn2[C@@H]2O[C@@H]3CO[P@@](=O)(S)O[C@H]4[C@H](F)[C@H](n5cnc6c(N)nc(Cl)nc65)O[C@@H]4CO[P@@](=O)(S)O[C@H]3[C@H]2O)c(=O)[nH]1 [CDN-5, (3',3')-cyclo-(Rp,Rp)-[3'-O-thiophosphodiester-guanosine]-[3'-O-thiophosphodiester-2-chloro-2'-deoxy-2'-fluoro-beta-adenosine]diammonium salt] | significant STING agonist activity | 1 to 10 | 1000 to 10000 | 71.7 | particularly significant inhibitory ability | 
